“Also recorded” adds a separate entry of the source.
What was measured:
[1] = test system: human platelets; experiment: Platelet morphology: formation of extensions with new cell bodies (progeny) in suspension-cultured platelets; format: cell-based; conditions: platelets 1×10^5 per mm^3 cultured in suspension for 6 hours; nevirapine 750 μM; 9-cis retinoic acid 1 and 10 μM
Procedure: Platelet Isolation and Culture. Whole blood was centrifuged at 150×g for 20 minutes to obtain platelet-rich plasma (PRP). Residual leukocytes were removed from the PRP by CD45+ bead selection as previously described^1, 6. The negatively selected platelets were resuspended in serum-free M199 culture medium at 37° C. in a humidified 5% CO2 atmosphere. For select studies, platelets were resuspended in fresh human plasma. […] Unless otherwise indicated, the washed platelets were cultured in suspension using round-bottom polypropylene tubes (Becton Dickinson, Franklin Lakes, N.J.). Platelets were suspended at 100,000/μl.
Platelet Morphology and Protein Expression. Freshly-isolated or aged platelets were either fixed immediately to assess baseline morphology, or after 6 hours of suspension culture as described above.
For studies that used fixed platelets, paraformaldehyde (4%) was added directly to the suspension culture as previously described^1, 6, 26 in order to maintain the native morphology of the cells. The fixed platelets (10,000 total for each sample) were subsequently layered onto coverslips coated with Vectabond™ (Vector Laboratories, Burlingame, Calif.) using a cytospin centrifuge (Shandon Cytospin, Thermo Fisher Scientific, Waltham, Mass.). To determine the number of platelets with extensions and distinct cell bodies, fixed cells were counterstained with Alexa Fluor® 488 phalloidin (A12379; Invitrogen, Eugene, Oreg.), a high-affinity probe for F-actin, and/or an Alexa Fluor® 555 (W32464; Invitrogen) conjugate of wheat germ agglutinin (WGA). Three random fields were captured from each independent experiment and at least 500 total cells, which encompassed individual platelets with two or more distinct cell bodies, were counted (FIG. 1H and FIG. 1I).

[2] = test system: human platelets; experiment: Surface P-selectin expression of cultured platelets with new cell bodies after agonist activation (immunostaining); format: cell-based; conditions: after 6 hours culture; ADP (2 μM) or thrombin (0.005 U/ml) for 1 minute
Description: For protein localization studies by immunocytochemistry (ICC), fixed cells were stained with antibodies directed against αIIbβ3 and Annexin V (ab34407; Abeam, Cambridge, Mass.), P-selectin (sc-6941; Santa Cruz Biotechnology, Santa Cruz, Calif.), β-tubulin (T-5293; Sigma), or mitofilin (MSM02; MitoSciences, Eugene, Oreg.). Specificity of the staining was confirmed for each antibody with isotype-matched nonimmune IgG. The cells were counterstained with either Alexa Fluor® 488 phalloidin or Alexa Fluor® 555 WGA conjugate as described in the previous paragraph. To assess mitochondrial function, use was made of MitoTracker® Red CM-H2XRos (M7513; Invitrogen), a reduced probe that fluoresces when it enters actively respiring mitochondria. For these studies, MitoTracker® (1 μM) was incubated with the live platelets one hour before the end of the experiment.

[3] = test system: endogenous reverse transcriptase (RT) activity in platelets; experiment: Reverse transcriptase activity assay in platelet lysates (reverse transcription of MS2 phage RNA); format: biochemical, human; conditions: platelet lysates incubated with compound at 37° C. for 120 minutes; nevirapine 100, 500, 750 μM; 9-cis retinoic acid 0.1, 1, 10 μM
Procedure: Reverse Transcriptase Activity Assay (FIGS. 10A-C and FIGS. 11A-C). The reverse transcriptase (RT) activity assay was performed as previously described^22 with minor modifications. […] MS2 phage RNA was subsequently added to the lysates and reverse transcription of MS2 phage RNA by platelet lysates or a commercial RT (Thermoscript, Invitrogen, Eugene, Oreg.) was determined.

Compound	number of newly-formed cell bodies extending from cultured platelets / progeny formation [1]	surface P-selectin expression in platelets that developed new cell bodies [2]	RT activity in platelets [3]
thrombin	did not develop new cells bodies; also recorded: blocks	markedly increased	
thrombopoietin: key regulator of bone marrow-dependent thrombopoiesis	no effect		
CC1=C(/C=C/C(C)=C\C=C\C(C)=C\C(=O)O)C(C)(C)CCC1 [9-cis retinoic acid]			inhibited
cytocholasin D	inhibited		
Cc1ccnc2c1NC(=O)c1cccnc1N2C1CC1 [nevirapine]			inhibited
Nc1ncnc2c1ncn2[C@@H]1O[C@H](COP(=O)(O)OP(=O)(O)O)[C@@H](O)[C@H]1O [ADP]		markedly increased	
